Measured values taken from patent publication US20210387983A1, “CRYSTALLINE ALK5 INHIBITORS AND USES THEREOF” (THERAVANCE BIOPHARMA R&D IP, LLC, priority 2020, published 2021).

Experiments:
[1] = tested on: DSS-induced intestinal fibrosis; test: Prophylactic study in murine DSS-induced intestinal fibrosis model; assay type: in vivo, C57BL/6J mice; settings: oral gavage starting on day one of DSS administration; sacrifice 9 weeks
Protocol: The compound of Formula I is expected to slow, halt or reverse the progression of intestinal fibrosis in a murine colitis model. Six to 8-week old male C57BL/6J mice are tagged and weighed. The drinking water of the animals is treated with 2.5% dextran sulfate sodium (DSS) for 7 days to induce acute colitis, followed by 2 days of normal drinking water. Three, 3-week cycles of 2.5% DSS treatment (1 week of 2.5% DSS in water; 2 weeks of normal water) are then completed to induce intestinal fibrosis. Starting on day one of DSS administration, mice are treated with either vehicle control or the compound of Formula I at an appropriate amount and frequency via oral gavage (e.g., once daily). The animals are sacrificed 9 weeks after the first DSS administration, then distal, mid and proximal sections of the colon harvested for histologic analysis, RNA extraction and cytokine measurement.

[2] = tested on: TGF-β-stimulated SMAD3 phosphorylation in BEAS-2B cells; test: Cellular ALK5 potency assay, inhibition of TGF-β stimulated pSMAD3 formation in BEAS-2B cells; assay type: cell-based; settings: Homo sapiens, 1 hour compound incubation, TGF-β 10 ng/mL for 30 minutes, read-out: pIC50 value, inhibition of TGF-β-stimulated pSMAD3 formation (converted)
Protocol: The potency of the compound of Formula I for inhibition of TGF-β-stimulated SMAD3 phosphorylation was measured in BEAS-2B cells, a human lung epithelial cell line. TGF-β signals through activin receptor-like kinase 5 (ALK5) immediately prior to SMAD3 phosphorylation.
BEAS-2B cells were grown using 50% DMEM (Life Technologies) and 50% F-12 (Life Technologies) media, supplemented with 10% Fetal Bovine Serum (ATCC), 25 mM HEPES (Life Technologies), and 1× Pen-Strep (Life Technologies). Cells were cultured in a humidified incubator set at 37° C., 5% CO2, and trypsonized using 0.25% Trypsin with 0.5% polyvinylpyrrolidone (PVP).
For the assay, BEAS-2B cells were seeded at 7,500 cells/well (25 μL/well) in a 384-well plate and cultured overnight. Before dosing, growth media was aspirated and the wells were rinsed with HBSS Buffer (HBSS with Calcium and Magnesium, Life Technologies) supplemented with 25 mM HEPES (Life Technologies) and 1% Bovine Serum Albumin (Roche). […] AlphaLISA Acceptor and Detector beads (PerkinElmer) were added 2 hours apart, then incubated overnight to be read the next day. The potency of the compound was determined through analysis of dose-dependent quantified changes in pSMAD3 signal from baseline (non-compound treated TGF-β stimulated cells). Data are expressed as pIC50 (negative decadic logarithm IC50) values.

[3] = In vitro human liver microsome intrinsic clearance (HLM Clint); assay type: in vitro ADME; settings: liver microsomes, pH 7.4, 0.1 μM test compound, 0.1 mg/mL protein, 1 mM NADPH, 37° C.
Protocol: Liver microsomes were used for in vitro determination of hepatic clearance of the compound of Formula I. A microsomal incubation cofactor solution was prepared with 100 mM potassium phosphate buffered to pH 7.4 (BD Biosciences, Woburn, Mass.) supplemented with 2 mM NADPH (Sigma-Aldrich, St. Louis, Mo.). 10 mM DMSO stocks of test compound were diluted and spiked into the cofactor solution to yield a 0.2 μM concentration (0.02% v/v DMSO). Aliquots of frozen human liver microsomes (Bioreclamation IVT, Baltimore Md.) were thawed and diluted into 100 mM potassium phosphate buffer to yield microsomal protein concentrations of 0.2 mg/mL. Cofactor/drug and microsomal solutions were pre-warmed separately for 4 minutes in a water bath held at 37° C. Incubations (n=1) were started by the combination of equal volumes of cofactor/drug solution with microsomal solution. The final concentration of test compound was 0.1 μM with a final protein concentration of 0.1 mg/mL and final NADPH concentration of 1 mM. Samples were collected at times 0, 3, 8, 15, 30, and 45 minutes to monitor the disappearance of test compound. At each time point, 50 μL of incubation sample was removed and spiked into 25 μL of water plus 3% formic acid plus Internal Standard for reaction termination. Samples were then injected onto an AB Sciex API 4000 triple quadrupole mass spectrometer for quantitation by LC-MS/MS. […]

Structure (SMILES): C[C@@H]1CN(CCNc2cnc3ccc(-c4nc[nH]c4-c4cc(Cl)ccc4F)nc3c2)C[C@H](C)N1 [compound of Formula I, 6-(5-(5-chloro-2-fluorophenyl)-1H-imidazol-4-yl)-N-(2-((3S,5R)-3,5-dimethylpiperazin-1-yl)ethyl)-1,5-naphthyridin-3-amine]
- intestinal fibrosis [1]: slow or prevent intestinal fibrosis
- IC50 [2]: 25.1 to 158 nM
- microsomal CLint at 0.1 μM [3]: > 250 µL/min/mg
